We go through six compounds from ChEMBL document CHEMBL1201862, “PubChem BioAssay data set” (2004).

Among the test systems are M14; MCF7; DMS-273; CAKI-1; SK-MEL-28; SNB-19; RXF 393; COLO 205; U-251; K562; NCI-H522; SNB-75; DU-145; IGROV-1; OVCAR-4; NCI/ADR-RES; LOX IMVI; A498; MDA-N; SR.
What all share (assay): inhibition of tumour cell growth, NCI panel, 48 h

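Dose response: 5 concentrations. Exposure: 48 h. Format: 96-well plates. Endpoint: linear interpolation; highest concentration if not reached. GI50 marks 50% less growth.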 Activity calls are given as the source filed them. Rule as the data show it: active = GI50 up to about 1.1 µM and inactive = higher. Where only a bound is given, the exact number is not on record here.

On to `COC1=C(C)C(=O)C2=C(C1=O)C1C3CC4=C(C(=O)C(OC)=C(C)C4=O)C(CNC(=O)C(C)=O)N3C(C#N)C(C2)N1C` (centres undefined), for which the GI50 was 0.00417 µM (active) in the assay on M14; 0.01 µM (active) in the assay on MCF7; 0.00432 µM (active) with DMS-273; 0.00516 µM (active) with CAKI-1; 0.00511 µM (active) with SK-MEL-28; 0.00804 µM (active) in the assay on SNB-19. For the same compound, the GI50 in the assay with RXF 393 is 0.00496 µM (active); with COLO 205, 0.00274 µM (active); with U-251, 0.00811 µM (active); with K562, 0.00153 µM (active); with NCI-H522, < 0.001 µM (active); with SNB-75, 0.00519 µM (active). Moreover, the GI50 with DU-145 was 0.00545 µM (active); in the assay with IGROV-1, 0.00424 µM (active); in the assay with OVCAR-4 it was 0.0405 µM (active); in the assay on NCI/ADR-RES, 0.296 µM (active); in the assay with LOX IMVI, 0.00129 µM (active).

As to `COc1cc(/C=C2\CCC/C(=C\c3ccc(O)c(OC)c3)C2=O)ccc1O` [CYCLOVALONE], the GI50 in the assay on M14 is 2.25 µM (inactive); with A498, 3.99 µM (inactive); in the assay with MCF7 it was 4.33 µM (inactive); with DMS-273, 1.51 µM (inactive); with CAKI-1, 2.81 µM (inactive); with SK-MEL-28, 3.41 µM (inactive). For the same compound, the GI50 with MDA-N was 2.42 µM (inactive); with SR it was 1.28 µM (inactive); in the assay with SNB-19 it was 6.15 µM (inactive); with RXF 393 it was 2.24 µM (inactive); in the assay on COLO 205, 14.2 µM (inactive); with U-251 it was 2.08 µM (inactive). The GI50 in the assay on K562 is 3.22 µM (inactive); in the assay on NCI-H522, 1.57 µM (inactive); in the assay with DU-145, 3.47 µM (inactive); in the assay on IGROV-1, 2.77 µM (inactive); in the assay on OVCAR-4 it was 7.35 µM (inactive); with NCI/ADR-RES, 2.91 µM (inactive). Moreover, the GI50 in the assay with LOX IMVI is 1.67 µM (inactive).

Consider `CCN(CCCl)CCCCNc1c2ccccc2nc2ccc(OC)cc12`, for which the GI50 with M14 was 1.12 µM (inactive); in the assay with A498, 0.379 µM (active); with MCF7, 0.0141 µM (active); with DMS-273, 0.0865 µM (active); in the assay on CAKI-1, 0.394 µM (active); in the assay on SK-MEL-28, 1.58 µM (inactive). Besides, the GI50 in the assay on MDA-N was 0.676 µM (active); in the assay on SR, < 0.01 µM (active); in the assay on SNB-19, 0.918 µM (active); with RXF 393, 0.238 µM (active); in the assay on COLO 205 it was 0.258 µM (active); in the assay with U-251 it was 0.239 µM (active). The GI50 is 0.2 µM (active) with K562; 0.208 µM (active) in the assay with NCI-H522; 0.472 µM (active) in the assay on SNB-75; 0.336 µM (active) in the assay on DU-145; 0.163 µM (active) in the assay on IGROV-1; 0.7 µM (active) in the assay with OVCAR-4. Besides, the GI50 was 4.25 µM (inactive) in the assay with NCI/ADR-RES and 0.149 µM (active) with LOX IMVI.

Take `O=C(CCC(=O)Nc1ccc(Cl)c(Cl)c1)Cc1nc2ccccc2o1`: the GI50 in the assay with M14, in the assay with A498, in the assay on DMS-273, in the assay on CAKI-1, in the assay on SK-MEL-28 and in the assay on SR was > 100 µM (inactive) in each case. In addition, the GI50 with SNB-19, in the assay on RXF 393, in the assay with COLO 205, with U-251, with K562 and in the assay with NCI-H522 was > 100 µM (inactive) in each case. The GI50 in the assay with SNB-75, in the assay with IGROV-1, with OVCAR-4 and with LOX IMVI was > 100 µM (inactive) in each case.

For `C=CC[C@@]1(C#N)C[C@H](C[C@]2(C#N)C[C@H](CCl)OC(C)(C)O2)OC(C)(C)O1`, the GI50 is > 100 µM (inactive) in the assay with M14; > 100 µM (inactive) with A498; > 100 µM (inactive) in the assay with DMS-273; > 100 µM (inactive) in the assay on CAKI-1; > 100 µM (inactive) with SK-MEL-28; 60.7 µM (inactive) with SR. Also, the GI50 is > 100 µM (inactive) in the assay with SNB-19; > 100 µM (inactive) in the assay on RXF 393; > 100 µM (inactive) in the assay on COLO 205; > 100 µM (inactive) in the assay on U-251; 53 µM (inactive) in the assay on K562; 46 µM (inactive) in the assay on NCI-H522. The GI50 is 64.4 µM (inactive) with SNB-75, > 100 µM (inactive) in the assay on IGROV-1, > 100 µM (inactive) in the assay with OVCAR-4 and > 100 µM (inactive) in the assay on LOX IMVI.

As for `[O-][N+]1=C(c2ccccc2)COc2ccccc21`, the GI50 in the assay with M14 is > 100 µM (inactive); in the assay on A498, > 100 µM (inactive); with DMS-273, > 100 µM (inactive); with CAKI-1 it was > 100 µM (inactive); in the assay with SK-MEL-28, > 100 µM (inactive); in the assay with SR it was 47.5 µM (inactive). In addition, the GI50 with SNB-19, in the assay on RXF 393, in the assay on COLO 205, with U-251, with K562 and in the assay on NCI-H522 was > 100 µM (inactive) throughout. The GI50 in the assay with SNB-75 was > 100 µM (inactive); in the assay on IGROV-1 it was > 100 µM (inactive); with OVCAR-4, > 100 µM (inactive); in the assay with LOX IMVI it was 96.4 µM (inactive).
